Data: the NIST ThermoML archive (doi:10.1016/j.fluid.2012.01.031)
Numbers after ± are expanded uncertainties.

Details: Crystal; DTA

Row | SMILES | Normal melting temperature [°C]
1 | c1ccc2c(c1)oc1ccccc12 [dibenzo[bd]furan] | 82.51 ± 0.41
2 | c1ccc2c(c1)Cc1ccccc1-2 [fluorene] | 114.38 ± 0.41
